Literature values as cited in patent US7189722B2, “Aryl spirohydantoin CGRP receptor antagonists” (Merck & Co., Inc., priority 2003, dated 2007).
Where two headings read alike, the source gives them in different places. Ends that are not written are not given here.

What was measured:
facial blood flow [1] = details: rat, trigeminal ganglion stimulation (Escott et al. 1995)
[2] = tested on: middle meningeal artery diameter; details: rats, electrical stimulation of the dura mater, prior administration (Williamson et al. 1997)
facial blood flow [3] = details: marmoset, electrical stimulation of the trigeminal ganglion (Doods et al. 2000)

CGRP(8-37): a peptide CGRP antagonist (VTHRLAGLLSRSGGVVKNNFVPTNVGSKAF; ends and bridges not checked; UniProt P06881 90-119, looked up, fragment)
effect on increase of facial blood flow (facial blood flow [1]): inhibited
effect on increase of middle meningeal artery diameter [2]: blocked

NCCCC[C@H](NC(=O)[C@@H](Cc1cc(Br)c(O)c(Br)c1)NC(=O)N1CCC(N2Cc3ccccc3NC2=O)CC1)C(=O)N1CCN(c2ccncc2)CC1 [BIBN4096BS]
effect on increase of facial blood flow (facial blood flow [3]): blocked
